Experimental data reported in paper PMC3271384 (Molecular Genetics and Metabolism, 2012).
Residue numbers refer to the chain shown, from its start.

Key:
Type in all cases: binding
AGT-Ma [1] = target: T1, AGT-Ma (Homo sapiens, UniProt P21549, P319L); assay: quenching of intrinsic fluorescence of apoenzyme
T1 sequence (P21549 1-392 P319L): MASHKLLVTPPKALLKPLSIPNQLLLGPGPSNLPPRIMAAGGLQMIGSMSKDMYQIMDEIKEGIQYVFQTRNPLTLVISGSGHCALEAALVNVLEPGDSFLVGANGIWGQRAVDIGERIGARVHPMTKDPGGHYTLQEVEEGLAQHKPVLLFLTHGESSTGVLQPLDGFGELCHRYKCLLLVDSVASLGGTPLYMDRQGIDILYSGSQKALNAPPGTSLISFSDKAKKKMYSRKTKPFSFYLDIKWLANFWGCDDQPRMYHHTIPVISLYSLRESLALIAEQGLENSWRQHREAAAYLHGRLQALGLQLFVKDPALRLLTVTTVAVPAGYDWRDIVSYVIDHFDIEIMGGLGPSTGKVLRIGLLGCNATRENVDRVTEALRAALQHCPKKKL

AGT-Mi [2] = target: T2, AGT-Mi (Homo sapiens, UniProt P21549, G350D/I340M/P11L); assay: quenching of intrinsic fluorescence of apoenzyme
T2 sequence (P21549 1-392 P11L/I340M/G350D): T1 sequence (P21549 1-392 P319L) with P11L, L319P, I340M, G350D

AGT-Mi [3] = target: T3, AGT-Mi (Homo sapiens, UniProt P21549, I340M/P11L/W108R); assay: CD signal at […] nm titration of apoenzyme
T3 sequence (P21549 1-392 P11L/W108R/I340M): T1 sequence (P21549 1-392 P319L) with P11L, W108R, L319P, I340M

AGT-Ma [4] = target: T4, AGT-Ma (Homo sapiens, UniProt P21549, S187F); assay: intrinsic fluorescence
T4 sequence (P21549 1-392 S187F): T1 sequence (P21549 1-392 P319L) with S187F, L319P

AGT-Ma [5] = target: T5, AGT-Ma (Homo sapiens, UniProt P21549, D183N); assay: CD signal at […] nm titration of apoenzyme
T5 sequence (P21549 1-392 D183N): T1 sequence (P21549 1-392 P319L) with D183N, L319P

AGT-Ma [6] = target: T6, AGT-Ma (Homo sapiens, UniProt P21549, S218L); assay: CD signal at […] nm titration of apoenzyme
T6 sequence (P21549 1-392 S218L): T1 sequence (P21549 1-392 P319L) with S218L, L319P

AGT-Mi [7] = target: T7, AGT-Mi (Homo sapiens, UniProt P21549, G161C/I340M/P11L); assay: quenching of intrinsic fluorescence of apoenzyme
T7 sequence (P21549 1-392 P11L/G161C/I340M): T1 sequence (P21549 1-392 P319L) with P11L, G161C, L319P, I340M

Kd (AGT-Ma [1]): 190 ± 40 nM
Kd (AGT-Mi [2]): 31 ± 5 nM
Kd (AGT-Mi [3]): 96000 ± 19000 nM
Kd (AGT-Ma [4]): < 10 nM
Kd (AGT-Ma [5]): 2100 ± 100 nM
Kd (AGT-Ma [6]): 24200 ± 100 nM
Kd (AGT-Mi [7]): 560 ± 90 nM
Structure (SMILES): Cc1ncc(COP(=O)(O)O)c(C=O)c1O [PLP]
